Like-named read-outs stand apart in the source and are kept apart here.
Experiments:
G43 cells [1] = experiment: Cell viability assay (CyQuant LDH); type: cell-based, human; conditions: 72 h, single agent, read-out: IC50 (cytotoxicity)
Procedure: (§1) Cell viability Assay: The cytotoxic effects of TMZ, LTZ, and various combinations of the two agents were evaluated using the CyQuant™ Lactate Dehydrogenase (LDH) assay (ThermoFisher Scientific). This assay measures the release of LDH, a cytosolic enzyme, into the extracellular medium resulting from damage to the plasma membrane. Cells (1.4×10^4) were plated in 96 well plates in serum-free medium. Twenty-four hours after seeding, cells were treated with TMZ (0-100 μM), LTZ (0-2 μM), or TMZ (0-10 μM)+LTZ (0.04 μM). Dimethyl sulfoxide (0.1%) was used as a vehicle control. The effect of adding estradiol (250 pg/ml) on cell viability was also determined.

G76 cells [2] = experiment: Cell viability assay (CyQuant LDH); type: cell-based, human; conditions: 72 h, single agent, read-out: IC50 (cytotoxicity)
Procedure: as §1

BT-142 cells [3] = experiment: Cell viability assay (CyQuant LDH); type: cell-based; conditions: Homo sapiens, BT142, 72 h, single agent, read-out: IC50 (cytotoxicity)
Procedure: as §1

G75 cells [4] = experiment: Cell viability assay (CyQuant LDH); type: cell-based; conditions: Homo sapiens, 72 h, single agent, read-out: IC50 (cytotoxicity)
Procedure: as §1

[5] = system: patient-derived GBM lines (G76, BT-142, G75, G43); experiment: Cell viability assay (CyQuant LDH), all four lines; type: cell-based, human; conditions: for IC50: Homo sapiens, BT142, 72 h
Procedure: as §1

BT-142 cells [6] = experiment: Neurosphere growth inhibition; type: cell-based, human; conditions: for median neurosphere diameter: 72 h, LTZ 40 nM, TMZ 1 μM, alone or combined
Procedure: (§2) Neurosphere Growth Inhibition: Since G43 and BT-142 cells form neurospheres in culture medium, the effects of LTZ and TMZ on the growth of the neurosphere. Cells (1×10^4) were plated and 24 hours later treated with LTZ (0-2 μM), TMZ (0-100 μM) or were also determined. Cells were treated with LTZ (0.04 μM)+TMZ (0-10 μM) for 72 h cells, with DMSO (0.1%) serving as vehicle control. Neurosphere dimensions were measured using Leica Stereomicroscope in bright field setting. The effect of addition of estradiol (250 pg/ml) on the neurosphere growth was also determined.

G43 cells [7] = experiment: Neurosphere growth inhibition; type: cell-based, human; conditions: for neurosphere diameter: 72 h, LTZ 40 nM, TMZ 1 μM, alone or combined, in mm
Procedure: as §2

G75 cells [8] = experiment: Assessment of gamma-H2A.X (flow cytometry); type: cell-based, human; conditions: for γ-H2AX induction (DNA damage): single agent (TMZ up to 1 μM; LTZ 500 nM and 1 μM); for LTZ-mediated induction of γ-H2AX in the presence of estradiol: estradiol (250 pg/ml)
Procedure: (§3) Assessment of gamma-H2A.X: Induction of γH2A.X in G75 and G76 cells (lx 106) treated with LTZ, TMZ, and LTZ+TMZ (0-10 μM) in the presence and the absence of estradiol (250 pg/ml) was assessed using flow cytometric analysis. Based on initial assessment of the time course of γH2A.X induction, a 5 h treatment was used to capture maximal effect. Cell pellets were collected by centrifugation of the cells at 2,000×g for 5 minutes at room temperature. Cells were then washed with ice cold PBS, followed by addition of a 1:1 mixture of methanol and NP40 (300 μL) for fixation and permeabilization of the cells. Following centrifugation at 4° C. at 290×g, 100 μL of 1:250 dilution of the primary unconjugated antibody for gamma-H2A.X at room temperature were added to the cells. The cells were incubated with the primary antibody for 20 min and washed with 600 μL of 1:1 methanol and NP40 mixture. Secondary Per-CP conjugated antibody was added to the cells at a dilution of 1:1000 and incubated at room temperature in the dark for 20 minutes. Cells were washed again with 600 μL of 1:1 methanol and NP40 mixture, re-suspended in 1×PBS, and subjected to flow cytometric analysis with the excitation wavelength of 488 nm (Beckman CytoFlex flow cytometer). […] The scatter plots were analyzed using CytExpert version 2.3 to assess the percentage of cells positive for γH2A.X versus the isotype control.

G76 cells [9] = experiment: Assessment of gamma-H2A.X (flow cytometry); type: cell-based, human; conditions: for γ-H2AX induction (DNA damage): single agent (TMZ up to 1 μM; LTZ 500 nM and 1 μM); for LTZ-mediated induction of γ-H2AX in the presence of estradiol: estradiol (250 pg/ml)
Procedure: as §3

G75 cells [10] = experiment: Apoptosis induction, Caspase-Glo 3/7; type: cell-based, human; conditions: for EC50: Homo sapiens; for induction of apoptosis (caspase 3/7), in words: TMZ up to 5 μM
Procedure: (§4) Apoptosis induction assay using Caspase-Glo® 3/7 system: G75 and G76 cells were employed to assess the effects of LTZ, TMZ, and LTZ+TMZ combination treatment on induction of apoptosis through caspase 3/7 activation. Cells were seeded at a density of 1.5×10^4 cells per well in a translucent walled, clear bottom, 96-well plate. Promega Caspase-Glo® 3/7 Assay system was used to assess the caspase 3/7 levels in cells treated with LTZ, TMZ, LTZ (0.04 μM)+TMZ (0-5 μM), and vehicle (0.1% DMSO). Cells were treated for 24 h after plating. Caspase-Glo® 3/7 3D substrate and Caspase-Glo® 3/7 3D buffer was mixed to form a 10 mL reaction mixture and 100 μL of the mixture was added to each well. The reaction was allowed to proceed at room temperature in the dark for 30 minutes. The luminescence readings were carried out 24 h after the treatment using Synergy™ HTX Multi-Mode Microplate Reader. The experiment was repeated in presence of estradiol to assess the effect of estradiol on caspase induction in G75 and G76 cells.

G76 cells [11] = experiment: Apoptosis induction, Caspase-Glo 3/7; type: cell-based, human; conditions: for EC50: Homo sapiens; for induction of apoptosis (caspase 3/7), in words: TMZ up to 5 μM
Procedure: as §4

[12] = cited from earlier work
[13] = single agent, Emax model, read-out: EC50 for caspase 3/7 induction
[14] = with letrozole 40 nM, read-out: EC50 for caspase 3/7 induction by temozolomide in the presence of letrozole (40 nM)
[15] = LTZ 40 nM alone or combined with TMZ

Question: For `Cn1nnc2c(C(N)=O)ncn2c1=O` [TMZ, 4-methyl-5-oxo-2,3,4,6,8-pentazabicyclo[4.3.0]nona-2,7,9-triene-9-carboxamide], which IC50 (G43 cells [1]) is on record?
Answer: 165 µM

Question: What about the IC50 (G43 cells [1]; Homo sapiens) of the same compound?
Answer: 165 µM

Question: And the IC50 (G76 cells [2])?
Answer: 1.31 µM

Question: What about the IC50 (G76 cells [2]; Homo sapiens) of the same compound?
Answer: 1.3 µM

Question: And the IC50 (BT-142 cells [3])?
Answer: 15.3 µM

Question: What about the IC50 (G75 cells [4]) of the same compound?
Answer: 107 µM

Question: And the IC50 ([5]; with LTZ 40 nM, read-out: TMZ IC50 in the presence of LTZ (40 nM), range for all four cell lines)?
Answer: 0.16 to 0.69 µM

Question: And the median neurosphere diameter (BT-142 cells [6])?
Answer: 0.9±0.023 mm

Question: And the neurosphere diameter (G43 cells [7])?
Answer: 1.6±0.085

Question: And the “γ-H2AX induction (DNA damage), TMZ combined with LTZ” value (G75 cells [8]; 5 h, LTZ 40 nM + TMZ 0.1 μM)?
Answer: significantly enhanced DNA damage by temozolomide

Question: What about the “γ-H2AX induction (DNA damage)” value (G75 cells [8]; 5 h) of the same compound?
Answer: not in G75 cells

Question: What about the “γ-H2AX induction (DNA damage), TMZ combined with LTZ” value (G76 cells [9]; 5 h, LTZ 40 nM + TMZ 0.1 μM) of the same compound?
Answer: significantly enhanced DNA damage by temozolomide

Question: What about the “γ-H2AX induction (DNA damage)” value (G76 cells [9]; 5 h) of the same compound?
Answer: noticeable induction of γ-H2AX

Question: What about the EC50 (G75 cells [10]; [13]) of the same compound?
Answer: 93.8 µM

Question: And the EC50 (G75 cells [10]; [14])?
Answer: 5.1 µM

Question: What about the “induction of apoptosis (caspase 3/7), in words” value (G75 cells [10]; single agent) of the same compound?
Answer: not in G75 cells

Question: What about the “TMZ-mediated apoptosis (caspase 3/7) with LTZ (40 nM)” value (G75 cells [10]; with LTZ 40 nM) of the same compound?
Answer: striking increase in TMZ-mediated apoptosis

Question: And the EC50 (G76 cells [11]; [13])?
Answer: 6.4 µM

Question: And the EC50 (G76 cells [11]; [14])?
Answer: 1.8 µM

Question: What about the “induction of apoptosis (caspase 3/7), in words” value (G76 cells [11]; single agent) of the same compound?
Answer: induced apoptosis in G76 cells

Question: What about the “TMZ-mediated apoptosis (caspase 3/7) with LTZ (40 nM)” value (G76 cells [11]; with LTZ 40 nM) of the same compound?
Answer: striking increase in TMZ-mediated apoptosis

Question: What about the peak plasma levels ([12]; doses of 100-200 mg/m^2, listed as temozolomide) of the same compound?
Answer: 25 to 50 µM

Question: And the “partitioning of the drug from plasma to the brain interstitial fluid” value ([12]; intracerebral microdialysis, peritumoral)?
Answer: 13-17%

Question: And the “brain interstitial fluid (peritumoral) concentrations” value ([12]; intracerebral microdialysis, approximately)?
Answer: 3 to 8 µM

Question: What does the source list for `N#Cc1ccc(C(c2ccc(C#N)cc2)n2cncn2)cc1` [LTZ, 4,4′-((1H-1,2,4-triazol-1-yl)methylene)dibenzonitrile]?
Answer: IC50 ([5]; single agent, read-out: IC50 (cytotoxicity), range over the cell lines): 0.08 to 0.67 µM; letrozole effects in cell viability assay with estradiol added ([5]; estradiol (250 pg/ml) added to the culture media): completely abrogated the letrozole effects; median neurosphere diameter (BT-142 cells [6]): 1.1±0.077 mm; neurosphere growth inhibition (in words) (BT-142 cells [6]; [15]): minimally impacted neurosphere growth; letrozole effects in neurosphere growth inhibition assay with estradiol added (BT-142 cells [6]; estradiol (250 pg/ml) added): completely abrogated the letrozole effects; neurosphere diameter (G43 cells [7]): 1.85±0.13; neurosphere growth inhibition (in words) (G43 cells [7]; [15]): minimally impacted neurosphere growth; letrozole effects in neurosphere growth inhibition assay with estradiol added (G43 cells [7]; estradiol (250 pg/ml) added): completely abrogated the letrozole effects; γ-H2AX induction (DNA damage) (G75 cells [8]; 5 h): considerably increased γ-H2AX levels; γ-H2AX induction (DNA damage) (G75 cells [8]; 5 h, listed as Letrozole): caused DNA damage; LTZ-mediated induction of γ-H2AX in the presence of estradiol (G75 cells [8]): abrogated in the presence of estradiol; LTZ-mediated induction of γ-H2AX in the presence of estradiol (G75 cells [8]; listed as letrozole): prevented letrozole-mediated DNA damage; γ-H2AX induction (DNA damage) (G76 cells [9]; 5 h): considerably increased γ-H2AX levels; γ-H2AX induction (DNA damage) (G76 cells [9]; 5 h, listed as Letrozole): caused DNA damage; LTZ-mediated induction of γ-H2AX in the presence of estradiol (G76 cells [9]): abrogated in the presence of estradiol; LTZ-mediated induction of γ-H2AX in the presence of estradiol (G76 cells [9]; listed as letrozole): prevented letrozole-mediated DNA damage; EC50 (G75 cells [10]; [13]): 5.07 ± 1.1 µM; letrozole-mediated induction of apoptosis in the presence of estradiol (G75 cells [10]; estradiol present): prevented letrozole-mediated DNA damage and induction of apoptosis; induction of apoptosis (caspase 3/7), in words (G75 cells [10]; single agent): very effective in inducing apoptosis in a concentration-dependent manner; EC50 (G76 cells [11]; [13]): 1.8 ± 0.312 µM; letrozole-mediated induction of apoptosis in the presence of estradiol (G76 cells [11]; estradiol present): prevented letrozole-mediated DNA damage and induction of apoptosis; induction of apoptosis (caspase 3/7), in words (G76 cells [11]; single agent): very effective in inducing apoptosis in a concentration-dependent manner

From US20250205225A1, “METHODS OF POTENTIATING TEMOZOLOMIDE ACTIVITY AGAINST GLIOBLASTOMA CELLS” (University of Cincinnati, priority 2022, published 2025)
